Test results: the NIST ThermoML archive (doi:10.1021/acs.jced.8b00793)

Conditions: 100 kPa, Liquid; for viscosity: Concentric cylinders viscometry; for mass density: Vibrating tube method

CCO [ethanol]
Conditions | mass density [kg/m3] | viscosity [mPa·s]
293.15 K | 790.7 | 1.23
303.15 K | 782.2 | 1.02
313.15 K | 773.4 | 0.85
323.15 K | 760.1 | 0.71
